From US20070049564A1 (Wyeth, priority 2005, published 2007)
In brackets after ≈: the same amount, converted by molar mass. Read-outs that look alike come from different tables or passages of the source.

What was measured:
E. coli GC 2231 = test: MIC, broth microdilution; conditions: Escherichia coli
E. coli GC 2235 = test: MIC, broth microdilution; conditions: Escherichia coli
E. coli GC 2232 = test: MIC, broth microdilution; conditions: Escherichia coli
E. coli GC 2270 = test: MIC, broth microdilution; conditions: Escherichia coli
E. coli GC 2271 = test: MIC, broth microdilution; conditions: Escherichia coli
E. coli GC 4559 = test: MIC, broth microdilution; conditions: Escherichia coli
E. coli GC 4560 = test: MIC, broth microdilution; conditions: Escherichia coli
E. coli GC 3226 = test: MIC, broth microdilution; conditions: Escherichia coli
E. coli GC 2203 = test: MIC, broth microdilution; conditions: Escherichia coli
S. typhimurium GC 2172 = test: MIC, broth microdilution; conditions: Salmonella enterica, TYPHIMURIUM
P. aeruginosa GC 2214 = test: MIC, broth microdilution; conditions: Pseudomonas aeruginosa
S. aureus GC 6467 = test: MIC, broth microdilution; conditions: Staphylococcus aureus
S. aureus GC 2216 = test: MIC, broth microdilution; conditions: Staphylococcus aureus
S. aureus GC 6335 = test: MIC, broth microdilution; conditions: Staphylococcus aureus
E. faecalis GC 2267 = test: MIC, broth microdilution; conditions: Enterococcus faecalis
E. faecalis GC 2242 = test: MIC, broth microdilution; conditions: Enterococcus faecalis
E. faecium GC 4556 = test: MIC, broth microdilution; conditions: Enterococcus faecium
S. pneumoniae* GC 4465 = test: MIC, broth microdilution; conditions: Streptococcus pneumoniae
S. agalactiae GC 4564 = test: MIC, broth microdilution; conditions: Streptococcus agalactiae
Staph. aureus Smith = test: In vivo activity (oral, iv; ED50) against Staph. aureus Smith in mice
[1] = read-out: MINIMAL INHIBITORY CONCENTRATION MIC, pre-incubated in Human Serum
[2] = read-out: MINIMAL INHIBITORY CONCENTRATION MIC, pre-incubated in Mouse Serum
[3] = read-out: MINIMAL INHIBITORY CONCENTRATION MIC, pre-incubated in Water

MIC (E. coli GC 2231; GC2231, read-out: MINIMAL INHIBITORY CONCENTRATION MIC, pre-incubated in Human Serum): > 64 µg/mL | MIC (E. coli GC 2231; GC2231, read-out: MINIMAL INHIBITORY CONCENTRATION MIC, pre-incubated in Mouse Serum): 0.5 µg/mL (≈ 0.61 µM) | MIC (E. coli GC 2231; GC2231, read-out: MINIMAL INHIBITORY CONCENTRATION MIC, pre-incubated in Water): > 64 µg/mL | MIC (E. coli GC 2235; GC2235, read-out: MINIMAL INHIBITORY CONCENTRATION MIC, pre-incubated in Human Serum): > 64 µg/mL | MIC (E. coli GC 2235; GC2235, read-out: MINIMAL INHIBITORY CONCENTRATION MIC, pre-incubated in Mouse Serum): 0.25 µg/mL (≈ 0.305 µM) | MIC (E. coli GC 2235; GC2235, read-out: MINIMAL INHIBITORY CONCENTRATION MIC, pre-incubated in Water): > 64 µg/mL | MIC (E. coli GC 2232; GC2232, read-out: MINIMAL INHIBITORY CONCENTRATION MIC, pre-incubated in Human Serum): > 64 µg/mL | MIC (E. coli GC 2232; GC2232, read-out: MINIMAL INHIBITORY CONCENTRATION MIC, pre-incubated in Mouse Serum): 0.5 µg/mL (≈ 0.61 µM) | MIC (E. coli GC 2232; GC2232, read-out: MINIMAL INHIBITORY CONCENTRATION MIC, pre-incubated in Water): > 64 µg/mL | MIC (E. coli GC 2270; GC2270, read-out: MINIMAL INHIBITORY CONCENTRATION MIC, pre-incubated in Human Serum): > 64 µg/mL | MIC (E. coli GC 2270; GC2270, read-out: MINIMAL INHIBITORY CONCENTRATION MIC, pre-incubated in Mouse Serum): 0.25 µg/mL (≈ 0.305 µM) | MIC (E. coli GC 2270; GC2270, read-out: MINIMAL INHIBITORY CONCENTRATION MIC, pre-incubated in Water): > 64 µg/mL | MIC (E. coli GC 2271; GC2271, read-out: MINIMAL INHIBITORY CONCENTRATION MIC, pre-incubated in Human Serum): > 64 µg/mL | MIC (E. coli GC 2271; GC2271, read-out: MINIMAL INHIBITORY CONCENTRATION MIC, pre-incubated in Mouse Serum): 0.25 µg/mL (≈ 0.305 µM) | MIC (E. coli GC 2271; GC2271, read-out: MINIMAL INHIBITORY CONCENTRATION MIC, pre-incubated in Water): > 64 µg/mL | MIC (E. coli GC 4559; GC4559, read-out: MINIMAL INHIBITORY CONCENTRATION MIC, pre-incubated in Human Serum): > 64 µg/mL | MIC (E. coli GC 4559; GC4559, read-out: MINIMAL INHIBITORY CONCENTRATION MIC, pre-incubated in Mouse Serum): 0.5 µg/mL (≈ 0.61 µM) | MIC (E. coli GC 4559; GC4559, read-out: MINIMAL INHIBITORY CONCENTRATION MIC, pre-incubated in Water): > 64 µg/mL | MIC (E. coli GC 4560; GC4560, read-out: MINIMAL INHIBITORY CONCENTRATION MIC, pre-incubated in Human Serum): 16 µg/mL (≈ 19.5 µM) | MIC (E. coli GC 4560; GC4560, read-out: MINIMAL INHIBITORY CONCENTRATION MIC, pre-incubated in Mouse Serum): < 0.06 µg/mL | MIC (E. coli GC 4560; GC4560, read-out: MINIMAL INHIBITORY CONCENTRATION MIC, pre-incubated in Water): 32 µg/mL (≈ 39 µM) | MIC (E. coli GC 3226; GC3226, read-out: MINIMAL INHIBITORY CONCENTRATION MIC, pre-incubated in Human Serum): > 64 µg/mL | MIC (E. coli GC 3226; GC3226, read-out: MINIMAL INHIBITORY CONCENTRATION MIC, pre-incubated in Mouse Serum): 1 µg/mL (≈ 1.22 µM) | MIC (E. coli GC 3226; GC3226, read-out: MINIMAL INHIBITORY CONCENTRATION MIC, pre-incubated in Water): > 64 µg/mL | MIC (E. coli GC 2203; GC2203, read-out: MINIMAL INHIBITORY CONCENTRATION MIC, pre-incubated in Human Serum): > 64 µg/mL | MIC (E. coli GC 2203; GC2203, read-out: MINIMAL INHIBITORY CONCENTRATION MIC, pre-incubated in Mouse Serum): 0.5 µg/mL (≈ 0.61 µM) | MIC (E. coli GC 2203; GC2203, read-out: MINIMAL INHIBITORY CONCENTRATION MIC, pre-incubated in Water): > 64 µg/mL | MIC (S. typhimurium GC 2172; [1]): > 64 µg/mL | MIC (S. typhimurium GC 2172; [2]): 2 µg/mL (≈ 2.44 µM) | MIC (S. typhimurium GC 2172; [3]): > 64 µg/mL | MIC (P. aeruginosa GC 2214; GC2214, read-out: MINIMAL INHIBITORY CONCENTRATION MIC, pre-incubated in Human Serum): > 64 µg/mL | MIC (P. aeruginosa GC 2214; GC2214, read-out: MINIMAL INHIBITORY CONCENTRATION MIC, pre-incubated in Mouse Serum): 16 µg/mL (≈ 19.5 µM) | MIC (P. aeruginosa GC 2214; GC2214, read-out: MINIMAL INHIBITORY CONCENTRATION MIC, pre-incubated in Water): > 64 µg/mL | MIC (S. aureus GC 6467; GC6467, read-out: MINIMAL INHIBITORY CONCENTRATION MIC, pre-incubated in Human Serum): 32 µg/mL (≈ 39 µM) | MIC (S. aureus GC 6467; GC6467, read-out: MINIMAL INHIBITORY CONCENTRATION MIC, pre-incubated in Mouse Serum): 0.5 µg/mL (≈ 0.61 µM) | MIC (S. aureus GC 6467; GC6467, read-out: MINIMAL INHIBITORY CONCENTRATION MIC, pre-incubated in Water): > 64 µg/mL | MIC (S. aureus GC 2216; GC2216, read-out: MINIMAL INHIBITORY CONCENTRATION MIC, pre-incubated in Human Serum): 32 µg/mL (≈ 39 µM) | MIC (S. aureus GC 2216; GC2216, read-out: MINIMAL INHIBITORY CONCENTRATION MIC, pre-incubated in Mouse Serum): 0.5 µg/mL (≈ 0.61 µM) | MIC (S. aureus GC 2216; GC2216, read-out: MINIMAL INHIBITORY CONCENTRATION MIC, pre-incubated in Water): 64 µg/mL (≈ 78.1 µM) | MIC (S. aureus GC 6335; GC6335, read-out: MINIMAL INHIBITORY CONCENTRATION MIC, pre-incubated in Human Serum): 64 µg/mL (≈ 78.1 µM) | MIC (S. aureus GC 6335; GC6335, read-out: MINIMAL INHIBITORY CONCENTRATION MIC, pre-incubated in Mouse Serum): 1 µg/mL (≈ 1.22 µM) | MIC (S. aureus GC 6335; GC6335, read-out: MINIMAL INHIBITORY CONCENTRATION MIC, pre-incubated in Water): 64 µg/mL (≈ 78.1 µM) | MIC (E. faecalis GC 2267; GC2267, read-out: MINIMAL INHIBITORY CONCENTRATION MIC, pre-incubated in Human Serum): 4 µg/mL (≈ 4.88 µM) | MIC (E. faecalis GC 2267; GC2267, read-out: MINIMAL INHIBITORY CONCENTRATION MIC, pre-incubated in Mouse Serum): 0.5 µg/mL (≈ 0.61 µM) | MIC (E. faecalis GC 2267; GC2267, read-out: MINIMAL INHIBITORY CONCENTRATION MIC, pre-incubated in Water): 32 µg/mL (≈ 39 µM) | MIC (E. faecalis GC 2242; GC2242, read-out: MINIMAL INHIBITORY CONCENTRATION MIC, pre-incubated in Human Serum): 4 µg/mL (≈ 4.88 µM) | MIC (E. faecalis GC 2242; GC2242, read-out: MINIMAL INHIBITORY CONCENTRATION MIC, pre-incubated in Mouse Serum): 0.5 µg/mL (≈ 0.61 µM) | MIC (E. faecalis GC 2242; GC2242, read-out: MINIMAL INHIBITORY CONCENTRATION MIC, pre-incubated in Water): 16 µg/mL (≈ 19.5 µM) | MIC (E. faecium GC 4556; GC4556, read-out: MINIMAL INHIBITORY CONCENTRATION MIC, pre-incubated in Human Serum): 8 µg/mL (≈ 9.76 µM) | MIC (E. faecium GC 4556; GC4556, read-out: MINIMAL INHIBITORY CONCENTRATION MIC, pre-incubated in Mouse Serum): 0.5 µg/mL (≈ 0.61 µM) | MIC (E. faecium GC 4556; GC4556, read-out: MINIMAL INHIBITORY CONCENTRATION MIC, pre-incubated in Water): 16 µg/mL (≈ 19.5 µM) | MIC (S. pneumoniae* GC 4465; [1]): 1 µg/mL (≈ 1.22 µM) | MIC (S. pneumoniae* GC 4465; [2]): < 0.06 µg/mL | MIC (S. pneumoniae* GC 4465; [3]): 0.5 µg/mL (≈ 0.61 µM) | MIC (S. agalactiae GC 4564; GC4564, read-out: MINIMAL INHIBITORY CONCENTRATION MIC, pre-incubated in Human Serum): 2 µg/mL (≈ 2.44 µM) | MIC (S. agalactiae GC 4564; GC4564, read-out: MINIMAL INHIBITORY CONCENTRATION MIC, pre-incubated in Mouse Serum): < 0.06 µg/mL | MIC (S. agalactiae GC 4564; GC4564, read-out: MINIMAL INHIBITORY CONCENTRATION MIC, pre-incubated in Water): 2 µg/mL (≈ 2.44 µM)
Structure (SMILES): CN(C)c1cc(NC(=O)CN(C(=O)OCOC(=O)c2ccc(C(C)(C)C)cc2)C(C)(C)C)c(O)c2c1C[C@H]1C[C@H]3[C@H](N(C)C)C(O)=C(C(N)=O)C(=O)[C@@]3(O)C(O)=C1C2=O [Example 43, ({[(2-{[(5aR,6aS,7S,10aS)-9-(aminocarbonyl)-4,7-bis(dimethylamino)-1,8,10a,11-tetrahydroxy-10,12-dioxo-5,5a,6,6a,7,10,10a,12-octahydrotetracen-2-yl]amino}-2-oxoethyl)(tert-butyl)amino]carbonyl}oxy)methyl 4-tert-butylbenzoate]
ED50 (Staph. aureus Smith; Staphylococcus aureus, in Mus musculus, po, read-out: ED50 Staph Smith SOD): 12.8 mg/kg | ED50 (Staph. aureus Smith; iv, read-out: ED50 Staph Smith SIV): 0.83 mg/kg
